Assay results published in ChEMBL document CHEMBL5230136, “A review: Biologically active 3,4-heterocycle-fused coumarins” (Eur J Med Chem, 2021).
In brackets after ≈: the same amount, converted by molar mass.

Legend:
[1] = Antiproliferative activity against human U87 cells assessed as reduction in cell viability by MTT assay; format: functional, cell-based, U-87MG ATCC; conditions: U-87 MG
Staphylococcus aureus = assay: Antibacterial activity against Staphylococcus aureus assessed as zone of inhibition; format: functional
Bacillus subtilis = assay: Antibacterial activity against Bacillus subtilis assessed as zone of inhibition; format: functional
Bacillus cereus = assay: Antibacterial activity against Bacillus cereus assessed as zone of inhibition; format: functional
Pseudomonas aeruginosa = assay: Antibacterial activity against Pseudomonas aeruginosa assessed as zone of inhibition; format: functional
Escherichia coli [2] = assay: Antibacterial activity against Escherichia coli assessed as zone of inhibition; format: functional
Klebsiella aerogenes = assay: Antibacterial activity against Enterobacter aerogenes assessed as zone of inhibition; format: functional
Aspergillus niger = assay: Antifungal activity against Aspergillus niger assessed as zone of inhibition; format: functional
Penicillium italicum = assay: Antifungal activity against Penicillium italicum assessed as zone of inhibition; format: functional
Fusarium oxysporum = assay: Antifungal activity against Fusarium oxysporum assessed as zone of inhibition; format: functional
[3] = Antioxidant activity assessed as DPPH radical scavenging activity; format: functional
[4] = target: Dual specificity tyrosine-phosphorylation-regulated kinase 1A (Homo sapiens, UniProt Q13627); assay: Inhibition of DYRK1A (unknown origin)
Candida albicans = assay: […] activity against Candida albicans assessed as zone of inhibition at 20 mg/ml; format: functional; conditions: read-out: IZ
[5] = target: T1, D(4) dopamine receptor (Homo sapiens) (UniProt P21917); assay: Inhibition of human D4 receptor
T1 sequence (whole entry): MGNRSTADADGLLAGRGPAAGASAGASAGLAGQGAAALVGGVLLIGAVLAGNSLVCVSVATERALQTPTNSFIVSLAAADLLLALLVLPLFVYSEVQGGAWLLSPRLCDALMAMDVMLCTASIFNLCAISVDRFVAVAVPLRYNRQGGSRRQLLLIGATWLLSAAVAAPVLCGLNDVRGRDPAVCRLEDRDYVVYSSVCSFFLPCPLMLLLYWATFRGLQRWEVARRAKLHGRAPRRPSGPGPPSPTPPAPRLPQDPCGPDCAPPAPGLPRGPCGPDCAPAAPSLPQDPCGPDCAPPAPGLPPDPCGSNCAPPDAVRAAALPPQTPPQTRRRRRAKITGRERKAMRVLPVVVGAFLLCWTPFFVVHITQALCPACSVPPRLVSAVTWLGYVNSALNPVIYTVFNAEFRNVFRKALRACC

Botrytis cinerea [6] = assay: Antifungal activity against Botrytis cinerea; format: functional, organism-based
[7] = test system: Xanthomonas citri pv. malvacearum; assay: Antibacterial activity against Xanthomonas citri pv. malvacearum assessed as reduction in bacterial growth; format: functional; parameters: concentration or dose not given beside the values
Fusarium verticillioides = assay: Antifungal activity against Fusarium verticillioides assessed as reduction in fungal growth; format: functional; parameters: concentration or dose not given beside the values
Rhizoctonia solani [8] = assay: Antifungal activity against Rhizoctonia solani assessed as reduction in fungal growth; format: functional; parameters: concentration or dose not given beside the values
Erysiphe necator = assay: Antifungal activity against powdery mildew Erysiphe necator assessed as reduction in fungal growth; format: functional; parameters: concentration or dose not given beside the values
Phytophthora = assay: Antimicrobial activity against Phytophthora assessed as reduction in microbial growth; format: functional; parameters: concentration or dose not given beside the values
Botrytis cinerea [9] = assay: Antifungal activity against gray mold Botrytis cinerea assessed as reduction in fungal growth; format: functional; parameters: concentration or dose not given beside the values
Escherichia coli [10] = assay: Antibacterial activity against Escherichia coli assessed as bacterial growth inhibition by broth dilution method; format: functional
Serratia marcescens [11] = assay: Antibacterial activity against Serratia marcescens assessed as zone of inhibition at 20 mg/ml; format: functional; conditions: read-out: IZ
Serratia marcescens [12] = assay: Antibacterial activity against Serratia marcescens assessed as zone of inhibition; format: functional
Proteus mirabilis = assay: Antibacterial activity against Proteus mirabilis assessed as zone of inhibition; format: functional
Aspergillus ochraceus = assay: Antifungal activity against Aspergillus ochraceus assessed as zone of inhibition; format: functional
Penicillium chrysogenum = assay: Antifungal activity against Penicillium chrysogenum assessed as zone of inhibition; format: functional
Colletotrichum camelliae = assay: Antifungal activity against Colletotrichum camelliae; format: functional, organism-based
Rhizoctonia solani [13] = assay: Antifungal activity against Rhizoctonia solani at 150 uM; format: functional, organism-based
H69AR = assay: Cytotoxicity against human NCI-H69AR cells assessed as reduction in cell viability by SRB assay; format: functional, cell-based
HuCC-A1 = assay: Antiproliferative activity against human HuCC-A1 cells assessed as reduction in cell proliferation; format: functional, cell-based
[14] = test system: Staphylococcus epidermidis; assay: Antibacterial activity against Staphylococcus epidermidis assessed as reduction in bacterial growth; format: functional

Molecule: N#CC1=C(N)Oc2c(c(=O)oc3ccccc23)C12C(=O)N(CCCCBr)c1ccccc12 (configuration not stated)
- IC50 [1]: 78 µM

Molecule: N#CC1=C(N)Oc2c(c(=O)oc3ccccc23)C1c1ccc(Br)cc1 (configuration not stated)
- inhibition zone (IZ) (Staphylococcus aureus): 28 mm
- inhibition zone (IZ) (Bacillus subtilis): 11 mm
- inhibition zone (IZ) (Bacillus cereus): 19 mm
- inhibition zone (IZ) (Pseudomonas aeruginosa): 10 mm
- inhibition zone (IZ) (Escherichia coli [2]): 20 mm
- inhibition zone (IZ) (Klebsiella aerogenes): 10 mm
- inhibition zone (IZ) (Aspergillus niger): 12 mm
- inhibition zone (IZ) (Penicillium italicum): 11 mm
- inhibition zone (IZ) (Fusarium oxysporum): 20 mm

Molecule: CC1(C)S[C@@H]2[C@H](NC(=O)[C@H](N)c3ccc(O)cc3)C(=O)N2[C@H]1C(=O)O [AMOXICILLIN]
- inhibition zone (IZ) (Staphylococcus aureus): 29 mm
- inhibition zone (IZ) (Bacillus subtilis): 12 mm
- inhibition zone (IZ) (Bacillus cereus): 20 mm
- inhibition zone (IZ) (Pseudomonas aeruginosa): 11 mm
- inhibition zone (IZ) (Escherichia coli [2]): 36 mm
- inhibition zone (IZ) (Klebsiella aerogenes): 10 mm

Molecule: CN1CCN(Cc2[se]c3c(=O)oc4ccccc4c3c2Br)CC1
- IC50 [3]: 87 µM

Molecule: O=c1oc2cc(O)ccc2c2c1[nH]c1ccc(O)cc12
- IC50 [4]: 0.0003 µM

Molecule: COc1ccc(C2SCCNc3c2c(=O)oc2cc(O)ccc32)c(O)c1 (configuration not stated)
- IC50 [3]: 120 µM

Molecule: CCOC(=O)c1nnc2c3c(=O)oc4ccccc4c3nn2c1N
- zone of inhibition at 20000 µg/mL (Candida albicans): 10 mm

Molecule: CC(CN1CCC2c3ccccc3OC(=O)C2C1)N(C)C (configuration not stated)
- ID50 [5]: 0.192 mg/kg

Molecule: C=CCOc1ccc2c(c1)oc(=O)c1c(C)coc12
- EC50 (Botrytis cinerea [6]): 1.72 µg/mL (≈ 6.71 µM)

Molecule: Cc1ccc2c3c(c(=O)oc2c1)C(c1ccccc1)N(C)C(c1ccccc1)C3 (configuration not stated)
- Activity [7]: 0%
- Activity (Fusarium verticillioides): 22%
- Activity (Rhizoctonia solani [8]): 15%
- Activity (Erysiphe necator): 0%
- Activity (Phytophthora): 0%
- Activity (Botrytis cinerea [9]): 0%

Molecule: GENTAMICIN
- MIC (Escherichia coli [10]): 5 µg/mL

Molecule: O=NN(CCCl)C(=O)NCCCl [CARMUSTINE]
- IC50 [1]: 3.9 µg/mL

Molecule: CCOc1ccc2c(c1)oc(=O)c1c(C)c(C)oc12
- EC50 (Botrytis cinerea [6]): 1.72 µg/mL (≈ 6.66 µM)

Molecule: CCOC(=O)c1nc2c3c(ncn2n1)Oc1c(c(=O)oc2ccccc12)C3c1ccc(Cl)cc1 (configuration not stated)
- zone of inhibition at 20000 µg/mL (Serratia marcescens [11]): 25 mm
- inhibition zone (IZ) (Staphylococcus aureus): 23 mm
- inhibition zone (IZ) (Bacillus cereus): 22 mm
- inhibition zone (IZ) (Serratia marcescens [12]): 25 mm
- inhibition zone (IZ) (Proteus mirabilis): 23 mm
- inhibition zone (IZ) (Aspergillus niger): 14 mm
- inhibition zone (IZ) (Aspergillus ochraceus): 19 mm
- inhibition zone (IZ) (Penicillium chrysogenum): 20 mm

Molecule: O=c1[nH]cnc2c1C(c1ccc(Br)cc1)c1c(c3ccccc3oc1=O)O2 (configuration not stated)
- inhibition zone (IZ) (Staphylococcus aureus): 22 mm
- inhibition zone (IZ) (Bacillus subtilis): 18 mm
- inhibition zone (IZ) (Bacillus cereus): 16 mm
- inhibition zone (IZ) (Pseudomonas aeruginosa): 10 mm
- inhibition zone (IZ) (Escherichia coli [2]): 13 mm
- inhibition zone (IZ) (Klebsiella aerogenes): 12 mm
- inhibition zone (IZ) (Aspergillus niger): 21 mm
- inhibition zone (IZ) (Penicillium italicum): 12 mm
- inhibition zone (IZ) (Fusarium oxysporum): 20 mm

Molecule: CN1C(c2ccccc2)Cc2c(c(=O)oc3c2ccc2ccccc23)C1c1ccccc1 (configuration not stated)
- Activity [7]: 9%
- Activity (Fusarium verticillioides): 14%
- Activity (Rhizoctonia solani [8]): 0%
- Activity (Erysiphe necator): 8%
- Activity (Phytophthora): 0%
- Activity (Botrytis cinerea [9]): 0%

Molecule: COc1ccc(C2SCCNc3c2c(=O)oc2ccccc32)c(O)c1 (configuration not stated)
- IC50 [3]: 120 µM

Molecule: COc1ccc2ccc(=O)oc2c1CC=C(C)C [OSTHOLE]
- EC50 (Botrytis cinerea [6]): 6.45 µg/mL (≈ 26.4 µM)
- EC50 (Colletotrichum camelliae): 16.8 µg/mL (≈ 68.9 µM)
- EC50 (Rhizoctonia solani [13]): 6.88 µg/mL (≈ 28.2 µM)

Molecule: CCSc1nn2c(=N)c3c(=O)oc4ccccc4c3nc2s1
- inhibition zone (IZ) (Aspergillus niger): 15 mm

Molecule: COc1cc([C@@H]2c3cc4c(cc3[C@@H](O[C@@H]3O[C@@H]5CO[C@@H](C)O[C@H]5[C@H](O)[C@H]3O)[C@H]3COC(=O)[C@H]23)OCO4)cc(OC)c1O [ETOPOSIDE]
- IC50 (H69AR): 45.9 µM
- IC50 (HuCC-A1): 6.8 µM

Molecule: N=c1c2c(=O)oc3ccccc3c2ccn1-c1ccccn1
- MIC [14]: 50 µg/mL (≈ 173 µM)
